Source: paper PMC9786103, “Potent and Selective Inhibition of CYP1A2 Enzyme by Obtusifolin and Its Chemopreventive Effects” (Pharmaceutics, 2022)
Read-outs that look alike come from different tables or passages of the source.

Assays:
CYP1A1 and CYP1A2 = experiment: CYP1A1- and CYP1A2-mediated POD and EROD with recombinant enzymes (summary); format: biochemical; details: human, summary bound
Experimental: (§1) The other conditions were similar to those used in the P450 inhibition study, as described earlier.
The inhibitory effects of obtusifolin on the CYP1A-mediated ethoxyresorufin O-deethylation (EROD) activity of rCYP1A1 and rCYP1A2 enzymes (10 pmol/mL) were investigated. […] The other conditions, except for the incubation time (20 min), were similar to those used in the P450 inhibition study, as described earlier.

CYP2E1 = target: T1, CYP2E1 (Homo sapiens, UniProt P05181); experiment: biochemical; format: biochemical
T1 construct: Mixtures of pooled HLM, P450 substrates, and obtusifolin; tissue XenoTech XTreme 200; host or cells: pooled human liver microsomes
Experimental: (§3) The following P450 isoform-specific substrates were used: coumarin (CYP2A6); bupropion (CYP2B6); amodiaquine (CYP2C8); tolbutamide (CYP2C9); omeprazole (CYP2C19); dextromethorphan (CYP2D6); chlorzoxazone (CYP2E1); and midazolam (CYP3A). […] NGS was introduced to start the reaction, which was followed by an additional incubation (15 min). Following reaction termination, aliquots of the supernatants were analyzed with LC-MS/MS.
(§4) Reverse phase column (Kinetex XB-C18, 100 × 2.10 mm; Phenomenex, Torrance, CA, USA) and triple-quadrupole mass spectrometer (LCMS 8060, Shimadzu, Kyoto, Japan) with an ultra high-performance LC system (Nexera X2, Shimadzu) analyze all the metabolites. […] For each metabolite, quantitation was carried out in selected reaction monitoring (SRM) mode using the following precursor-to-product ion transition: m/z 152 > 110 for acetaminophen (CYP1A2), m/z 214 > 186 for resorufin (CYP1A1 and CYP1A2), m/z 163 > 107 for 7-hydroxycoumarin (CYP2A6), m/z 256 > 238 for 6-hydroxybupropion (CYP2B6), m/z 328 > 283 for N-desethylamodiaquine (CYP2C8), m/z 287 > 89 for 5-hydroxytolbutamide (CYP2C9), m/z 362 > 214 for 4-hydroxyomeprazole (CYP2C9), m/z 258 > 157 for dextrorphan (CYP2D6), m/z 184 > 120 for 6-hydroxychlorzoxazone (CYP2E1), m/z 342 > 203 for 1′-hydroxymidazolam (CYP3A), and m/z 295 > 100 for trimipramine (IS) [23, 24].

CYP2C9 = target: T2, CYP2C9 (Homo sapiens, UniProt P11712); experiment: Tolbutamide 4-hydroxylation in human liver microsomes; format: biochemical; details: HLMs
T2 construct: Mixtures of pooled HLM, P450 substrates, and obtusifolin; tissue XenoTech XTreme 200; host or cells: pooled human liver microsomes
Experimental: as §3, §4

rCYP1A2 = target: T3, rCYP1A2 (Homo sapiens, UniProt P05177); experiment: Recombinant CYP1A2 inhibition with 9-cis-retinal as substrate; format: biochemical; details: substrate 9-cis-retinal
T3 construct: purchased SPMED (Busan, Republic of Korea)
T3 sequence (P05177 1-516): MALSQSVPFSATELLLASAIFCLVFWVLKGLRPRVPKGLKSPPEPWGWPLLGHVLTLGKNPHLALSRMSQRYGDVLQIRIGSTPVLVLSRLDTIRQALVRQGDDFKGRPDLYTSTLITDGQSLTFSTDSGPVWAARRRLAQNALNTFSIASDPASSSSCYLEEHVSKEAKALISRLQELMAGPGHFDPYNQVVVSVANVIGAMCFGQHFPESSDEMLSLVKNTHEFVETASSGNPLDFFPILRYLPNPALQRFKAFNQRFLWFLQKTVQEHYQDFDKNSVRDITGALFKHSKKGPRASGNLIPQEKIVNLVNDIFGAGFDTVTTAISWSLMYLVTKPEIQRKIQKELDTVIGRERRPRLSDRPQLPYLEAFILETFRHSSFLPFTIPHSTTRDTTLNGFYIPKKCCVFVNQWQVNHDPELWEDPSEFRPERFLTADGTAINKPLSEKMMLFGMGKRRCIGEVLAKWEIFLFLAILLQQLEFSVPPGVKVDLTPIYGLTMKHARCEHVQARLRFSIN
Description: (§2) Table 5 Inhibitory effects (IC50) of obtusifolin against recombinant CYP1A1 and CYP1A2. | column: IC50 (μM)

CYP1A2 [1] = target: T4, CYP1A2 (Homo sapiens, UniProt P05177); experiment: Time-dependent inhibition assay (IC50 shift) of CYP1A2-mediated POD in pHLMs; format: biochemical; set-up: tissue XenoTech XTreme 200; host or cells: pooled human liver microsomes
T4 sequence (P05177 1-516): T3 sequence (P05177 1-516)
Experimental: The IC50 shift approach was applied to assess the time-dependent inhibition of CYP1A2 by obtusifolin [18]. For 30 min, obtusifolin was pre-incubated with pHLMs in the presence of NGS. The reaction was started with 100 µM phenacetin and then incubated for 15 min. Following reaction termination and centrifugation, aliquots of the supernatants were subjected to LC-MS/MS analysis.

rCYP1A1 [2] = target: T5, rCYP1A1 (Homo sapiens, UniProt P04798); experiment: Phenacetin O-deethylation (POD) in recombinant CYP1A1; format: biochemical
T5 construct: purchased SPMED (Busan, Republic of Korea)
T5 sequence (P04798 1-512): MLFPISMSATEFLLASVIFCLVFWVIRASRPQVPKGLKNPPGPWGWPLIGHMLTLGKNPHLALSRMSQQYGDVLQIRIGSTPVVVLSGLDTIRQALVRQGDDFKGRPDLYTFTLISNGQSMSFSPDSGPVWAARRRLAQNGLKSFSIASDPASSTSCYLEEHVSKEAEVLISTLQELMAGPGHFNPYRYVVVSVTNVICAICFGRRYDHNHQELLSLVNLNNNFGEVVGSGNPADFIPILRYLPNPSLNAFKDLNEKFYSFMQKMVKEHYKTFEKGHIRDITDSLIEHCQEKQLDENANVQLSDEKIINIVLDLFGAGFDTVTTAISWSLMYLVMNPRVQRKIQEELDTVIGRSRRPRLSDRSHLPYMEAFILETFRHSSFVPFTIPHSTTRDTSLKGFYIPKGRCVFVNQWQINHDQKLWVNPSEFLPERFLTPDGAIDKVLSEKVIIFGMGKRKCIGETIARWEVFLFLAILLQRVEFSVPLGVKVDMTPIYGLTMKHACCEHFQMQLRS

rCYP1A1 [3] = target: T5, rCYP1A1; experiment: Recombinant CYP1A1 inhibition with 9-cis-retinal as substrate; format: biochemical; details: substrate 9-cis-retinal
Description: as §2

CYP2B6 = target: T6, CYP2B6 (Homo sapiens, UniProt P20813); experiment: Bupropion 6-hydroxylation in human liver microsomes; format: biochemical; details: HLMs
T6 construct: Mixtures of pooled HLM, P450 substrates, and obtusifolin; tissue XenoTech XTreme 200; host or cells: pooled human liver microsomes
T6 sequence (P20813 1-491): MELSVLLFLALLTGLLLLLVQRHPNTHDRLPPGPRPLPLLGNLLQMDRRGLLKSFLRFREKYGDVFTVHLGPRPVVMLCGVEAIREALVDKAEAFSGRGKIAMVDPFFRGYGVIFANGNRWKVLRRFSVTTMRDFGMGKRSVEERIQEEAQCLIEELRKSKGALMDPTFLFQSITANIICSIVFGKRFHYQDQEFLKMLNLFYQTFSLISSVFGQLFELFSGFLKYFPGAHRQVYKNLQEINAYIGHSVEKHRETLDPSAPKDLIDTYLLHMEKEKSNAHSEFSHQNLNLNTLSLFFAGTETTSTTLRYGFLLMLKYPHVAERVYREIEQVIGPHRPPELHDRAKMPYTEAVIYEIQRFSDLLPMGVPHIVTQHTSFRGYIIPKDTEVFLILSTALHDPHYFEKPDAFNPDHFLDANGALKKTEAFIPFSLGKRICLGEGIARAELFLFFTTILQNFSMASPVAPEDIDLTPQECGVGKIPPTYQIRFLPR
Experimental: as §3, §4

CYP1A2 [4] = target: T4, CYP1A2; experiment: Kinetic characterization of inhibition of CYP1A2-mediated POD in human liver microsomes; format: biochemical; set-up: tissue XenoTech XTreme 200; host or cells: pooled human liver microsomes; details: HLMs; for Type of inhibition of CYP1A2-mediated POD: Lineweaver-Burk and Dixon plots
Description: as §1
WinNonlin software (Pharsight, Mountain View, CA, USA) was used to calculate IC50 values. Based on Lineweaver–Burk double reciprocal plots, secondary plots of Lineweaver–Burk plots versus obtusifolin concentrations, and visual inspection of Dixon plots, the type of inhibition and apparent kinetic parameters for inhibitory activity (Ki) were estimated.

CYP3A = CYP3A (Homo sapiens, UniProt P08684); experiment: Midazolam 1'-hydroxylation in human liver microsomes; format: biochemical; details: pooled human liver microsomes, probe midazolam, HLMs
Experimental: as §3, §4

[5] = read-out: Maximum concentration (Cmax) of obtusifolin in rat blood, cited from earlier work

T2 sequence (P11712 whole entry): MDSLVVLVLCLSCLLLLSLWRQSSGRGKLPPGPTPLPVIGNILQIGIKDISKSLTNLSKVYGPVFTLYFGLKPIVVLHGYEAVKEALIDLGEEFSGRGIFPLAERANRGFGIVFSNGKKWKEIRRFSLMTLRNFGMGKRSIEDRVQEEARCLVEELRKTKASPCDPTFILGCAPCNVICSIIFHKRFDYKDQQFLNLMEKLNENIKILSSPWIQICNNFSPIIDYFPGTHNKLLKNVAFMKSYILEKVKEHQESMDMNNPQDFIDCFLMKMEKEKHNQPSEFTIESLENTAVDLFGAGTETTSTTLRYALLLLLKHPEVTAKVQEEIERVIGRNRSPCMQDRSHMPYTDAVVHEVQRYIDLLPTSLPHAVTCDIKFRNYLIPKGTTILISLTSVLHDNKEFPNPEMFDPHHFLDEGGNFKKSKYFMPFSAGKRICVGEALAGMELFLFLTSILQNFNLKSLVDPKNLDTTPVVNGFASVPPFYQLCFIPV
T1 sequence (P05181 whole entry): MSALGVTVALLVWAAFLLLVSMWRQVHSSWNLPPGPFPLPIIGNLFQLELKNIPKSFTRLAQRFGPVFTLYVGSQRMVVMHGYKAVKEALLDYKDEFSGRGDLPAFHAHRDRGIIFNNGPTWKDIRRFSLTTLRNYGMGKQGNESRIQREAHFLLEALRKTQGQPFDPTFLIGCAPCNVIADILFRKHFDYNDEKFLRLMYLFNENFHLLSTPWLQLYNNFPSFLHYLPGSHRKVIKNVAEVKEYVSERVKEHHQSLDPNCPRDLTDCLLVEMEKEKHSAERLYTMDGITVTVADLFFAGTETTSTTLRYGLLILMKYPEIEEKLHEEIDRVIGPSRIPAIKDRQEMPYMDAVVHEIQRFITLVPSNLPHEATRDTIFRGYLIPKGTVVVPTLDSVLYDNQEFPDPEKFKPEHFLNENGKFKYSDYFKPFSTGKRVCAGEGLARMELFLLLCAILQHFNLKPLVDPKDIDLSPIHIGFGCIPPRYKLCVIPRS
Chain of CYP3A (P08684 2-503): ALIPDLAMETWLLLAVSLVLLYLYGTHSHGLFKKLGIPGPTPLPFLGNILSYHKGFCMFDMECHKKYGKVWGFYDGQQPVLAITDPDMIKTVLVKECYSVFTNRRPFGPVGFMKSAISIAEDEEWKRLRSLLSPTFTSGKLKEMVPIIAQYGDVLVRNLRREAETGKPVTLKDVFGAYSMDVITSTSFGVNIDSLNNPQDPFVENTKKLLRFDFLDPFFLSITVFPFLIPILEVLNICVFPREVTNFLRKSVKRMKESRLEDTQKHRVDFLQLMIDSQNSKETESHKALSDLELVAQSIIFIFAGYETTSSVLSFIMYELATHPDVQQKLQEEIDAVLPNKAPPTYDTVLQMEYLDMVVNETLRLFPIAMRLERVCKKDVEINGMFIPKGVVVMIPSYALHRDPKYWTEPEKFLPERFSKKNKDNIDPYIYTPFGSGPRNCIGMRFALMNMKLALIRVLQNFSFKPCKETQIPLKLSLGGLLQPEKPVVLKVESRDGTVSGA

In the case of `COc1c(O)c(C)cc2c1C(=O)c1c(O)cccc1C2=O` [Obtusifolin, obtusifolin], the IC50 (CYP1A1 and CYP1A2) is reported as under 570 nM, the IC50 (CYP2E1) is reported as over 50 µM and the inhibition at 15 min, 0.5 µM (CYP2E1; human, microsomes) is reported as 30.7%. The IC50 (CYP2C9) was 28.6 µM, the IC50 (rCYP1A2) was 150 ± 30 nM and the IC50 (CYP1A2 [1]; 30 min preincubation with pHLMs and NGS, phenacetin 100 µM) was 130 nM. The “Time dependence of CYP1A2 inhibition” value (CYP1A2 [1]; IC50 shift approach) was “time-independent inhibition”, the IC50 shift at 15 min (CYP1A2 [1]; human, pooled human liver microsomes, probe phenacetin (100 µM), 30 min preincubation with NGS vs without, pHLMs) was 1.46 and the “Selectivity for rCYP1A1 over rCYP1A2” value (rCYP1A1 [2]; CYP1A-mediated POD activity) was “over six-fold”. The IC50 (rCYP1A1 [2]; substrate phenacetin (POD)) was 60 ± 20 nM, the IC50 (rCYP1A1 [3]) was over 10 µM and the IC50 (CYP2B6) was over 50 µM. The Ki (CYP1A2 [4]; phenacetin 20, 50, 100 µM, read-out: Ki, CYP1A2-mediated phenacetin O-deethylation) was 110 ± 20 nM, the “Type of inhibition of CYP1A2-mediated POD” value (CYP1A2 [4]) was “competitive” and the “Type of inhibition of CYP1A2-mediated POD” value (CYP1A2 [4]; listed as obtusifolin) was “competitive inhibition”. The IC50 at 15 min (CYP3A) was over 50 µM, the Cmax ([5]; single oral Semen Cassiae extracts 1.25 g/kg (5.01 mg/g obtusifolin)) was 860 nM and the Cmax ([5]; single oral obtusifolin 1.3 mg/kg) was 540 nM.
